Article PMC11457037 (Journal of medicinal chemistry, 2023)
Like-named read-outs stand apart in the source and are kept apart here.

What was measured:
[1] = system: multiple strains of EV-D68; conditions: read-out: EC50 values, multiple strains of EV-D68; viral cytopathic effect assay and plaque assay; cited from earlier work
[2] = biological target: T1, EV-D68 2A^pro (Enterovirus D68, UniProt A0A097BW19); assay: Enzyme kinetic studies; type: biochemical; conditions: for Mode of inhibition of EV-D68 2A^pro: from fitting of kinetic curves
[3] = system: EV-D68 US/MO/14-18947; assay: CPE assay with EV-D68 US/MO/14-18947 in R.D. cells; type: cell-based, Enterovirus D68; conditions: for EC50: read-out: Antiviral EC50
[4] = In vivo snap P.K. in mice; conditions: male C57BL/6J mice, 50 mg/kg i.p., 10% DMSO and 90% corn oil
[5] = biological target: T1, EV-D68 2A^pro; assay: FRET-based enzymatic assay; type: biochemical
[6] = system: EV-D68 US/MO/14-18947; assay: Plaque assay, EV-D68 US/MO/14-18947; type: cell-based, Enterovirus D68
[7] = In vivo toxicity, escalating i.p. doses
[8] = system: five strains of EV-D68; assay: Broad-spectrum antiviral activity, five strains of EV-D68 together; type: cell-based, Enterovirus D68
[9] = system: EV-D68; conditions: respiratory and neurological disease mouse models; cited from earlier work
[10] = system: R.D. cells; assay: Cytotoxicity, neutral red uptake method in R.D. cells; type: cell-based, Human; conditions: read-out: Cytotoxicity CC50

CCC[C@H](NC(=O)[C@@H]1[C@H]2CCC[C@H]2CN1C(=O)[C@@H](NC(=O)[C@@H](NC(=O)c1cnccn1)C1CCCCC1)C(C)(C)C)C(=O)C(=O)NC1CC1 [Telaprevir, telaprevir, reference compound]
EC50 [1]: 400 to 1900 nM
kinact [2]: 0.00146 s⁻¹
Mode of inhibition of EV-D68 2A^pro [2]: irreversible covalent inhibitor

CCC[C@H](NC(=O)[C@@H]1[C@H]2CCC[C@H]2CN1C(=O)[C@@H](NC(=O)CC1CCC(F)(F)CC1)C(C)(C)C)C(=O)C(=O)NC1CC1 [Jun975, (1S,3aR,6aS)-N-((S)-1-(cyclopropylamino)-1,2-dioxohexan-3-yl)-2-((S)-2-(2-(4,4-difluorocyclohexyl)acetamido)-3,3-dimethylbutanoyl)octahydrocyclopenta[c]pyrrole-1-carboxamide]
EC50 ([3]; Enterovirus D, EVD68, RD): 160 to 750 nM

CC(C)(C)[C@H](NC(=O)CC12CC3CC(CC(C3)C1)C2)C(=O)N1C[C@@H]2CCC[C@@H]2[C@H]1C(=O)N[C@H](C(=O)C(=O)NC1CC1)C1CCCCC1 [Jun11762, (1S,3aR,6aS)-2-((S)-2-(2-((3S,5S,7S)-adamantan-1-yl)acetamido)-3,3-dimethylbutanoyl)-N-((S)-1-cyclohexyl-3-(cyclopropylamino)-2,3-dioxopropyl)octahydrocyclopenta[c]pyrrole-1-carboxamide]
time plasma concentration was above 4-fold of EC50 value (0.13 μM) [4]: at least 5 h
enzymatic inhibition, comparison in words [5]: comparable enzymatic inhibition and antiviral activity as Jun8861
fold improvement compared to telaprevir, plaque assay EC50 [6]: 3 to 4 fold
mortality and body weight ([7]; BALB/c mice, i.p. 100 to 400 mg/kg, monitored up to day 16): no mortality or significant body weight loss was observed
tolerated dose ([7]; female, BALB/c, mouse, in vivo, 16 days): up to 400 mg/kg
EC50 ([8]; Enterovirus D, EVD68, read-out: EC50 values over all five strains): 43 to 269 nM
fold improvement compared to telaprevir, five strains ([8]; five EV-D68 strains): 3.1-4.6 fold
Mode of inhibition of EV-D68 2A^pro [2]: reversible binding

CCOC(=O)c1ccc(OCCC2CCN(c3ccc(C)nn3)CC2)cc1 [pirodavir]
therapeutic efficacy in EV-D68 mouse models [9]: none of these antivirals showed therapeutic efficacy

CCC(C)[C@H](NC(=O)[C@@H]1[C@H]2CCC[C@H]2CN1C(=O)[C@@H](NC(=O)CC12CC3CC(CC(C3)C1)C2)C(C)(C)C)C(=O)C(=O)NC1CC1 (stereo partly drawn) [Jun11756, (1S,3aR,6aS)-2-((S)-2-(2-((3S,5S,7S)-adamantan-1-yl)acetamido)-3,3-dimethylbutanoyl)-N-((3S,4S)-1-(cyclopropylamino)-4-methyl-1,2-dioxohexan-3-yl)octahydrocyclopenta[c]pyrrole-1-carboxamide]
enzymatic inhibition, comparison in words [5]: comparable enzymatic inhibition and antiviral activity as Jun8861
fold improvement compared to telaprevir, plaque assay EC50 [6]: 3 to 4 fold

CCC[C@H](NC(=O)[C@@H]1[C@H]2CCC[C@H]2CN1C(=O)[C@@H](NC(=O)CC1CCCCC1)C(C)(C)C)C(=O)C(=O)NC1CC1 [Jun8814, (1S,3aR,6aS)-2-((S)-2-(2-cyclohexylacetamido)-3,3-dimethylbutanoyl)-N-((S)-1-(cyclopropylamino)-1,2-dioxohexan-3-yl)octahydrocyclopenta[c]pyrrole-1-carboxamide]
EC50 ([3]; Enterovirus D, EVD68, RD): 160 to 750 nM

CCOC(=O)/C=C/[C@H](C[C@@H]1CCNC1=O)NC(=O)[C@@H](CC(=O)[C@@H](NC(=O)c1cc(C)on1)C(C)C)Cc1ccc(F)cc1 [rupintrivir]
therapeutic efficacy in EV-D68 mouse models [9]: none of these antivirals showed therapeutic efficacy

CC(C)S(=O)(=O)n1c(N)nc2ccc(/C(=N/O)c3ccccc3)cc21 [enviroxime]
therapeutic efficacy in EV-D68 mouse models [9]: none of these antivirals showed therapeutic efficacy

Cc1cc(CCCOc2c(C)cc(-c3noc(C(F)(F)F)n3)cc2C)on1 [pleconaril]
therapeutic efficacy in EV-D68 mouse models [9]: none of these antivirals showed therapeutic efficacy

COC[C@H](NC(=O)[C@@H]1[C@H]2CCC[C@H]2CN1C(=O)[C@@H](NC(=O)CC12CC3CC(CC(C3)C1)C2)C(C)(C)C)C(=O)C(=O)NC1CC1 [Jun11672, (1S,3aR,6aS)-2-((S)-2-(2-((3S,5S,7S)-adamantan-1-yl)acetamido)-3,3-dimethylbutanoyl)-N-((S)-4-(cyclopropylamino)-1-methoxy-3,4-dioxobutan-2-yl)octahydrocyclopenta[c]pyrrole-1-carboxamide]
antiviral activity, comparison in words ([3]; CPE assay EV-D68 US/MO/14-18947): not active as Jun8861

NC(=O)c1ncn([C@@H]2O[C@H](CO)[C@@H](O)[C@H]2O)n1 [ribavirin]
therapeutic efficacy in EV-D68 mouse models [9]: none of these antivirals showed therapeutic efficacy

(1S,3aR,6aS)-N-((S)-1-(cyclopropylamino)-1,2-dioxohexan-3-yl)-2-((S)-3,3-dimethyl-2-(2-phenylacetamido)butanoyl)octahydrocyclopenta[c]pyrrole-1-carboxamide [Jun8861]
EC50 ([3]; CPE assay, EV-D68 US/MO/14-18947, R.D. cells): 160 nM
IC50 ([5]; read-out: Enzymatic inhibitory activity IC50, EV-D68 2A^pro): 80 nM
Mode of inhibition of EV-D68 2A^pro [2]: reversible binding
CC50 [10]: 36200 nM
